Experiments:
THZ1 = compound: CN(C)C/C=C/C(=O)Nc1ccc(C(=O)Nc2cccc(Nc3ncc(Cl)c(-c4c[nH]c5ccccc45)n3)c2)cc1 [THZ1]; experiment: GR value, 72 h; higher = faster growth (1 = untreated, <0 = killing);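 further: breast cancer and non-malignant breast epithelial lines, nine half-log doses, viable cells counted by Hoechst and LIVE/DEAD dye imaging versus time-zero plates and DMSO controls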
[1] = compound: CCc1cnn2c(NCc3ccc[n+]([O-])c3)cc(N3CCCC[C@H]3CCO)nc12; experiment: as above
[2] = compound: CCN1CCN(Cc2ccc(Nc3ncc(F)c(-c4cc(F)c5nc(C)n(C(C)C)c5c4)n3)nc2)CC1; experiment: as above
BSJ-03-123 [3] = compound: T1, CC(=O)c1c(C)c2cnc(Nc3ccc(N4CCN(CCOCCOCCOCCNC(=O)COc5cccc6c5C(=O)N(C5CCC(=O)NC5=O)C6=O)CC4)cn3)nc2n(C2CCCC2)c1=O [BSJ-03-123]; experiment: as above
YKL-5-124 = compound: C=CC(=O)Nc1ccc(C(=O)Nc2[nH]nc3c2CN(C(=O)N[C@H](CN(C)C)c2ccccc2)C3(C)C)cc1 [YKL-5-124]; experiment: as above
THZ531 = compound: CN(C)C/C=C/C(=O)Nc1ccc(C(=O)N2CCC[C@@H](Nc3ncc(Cl)c(-c4c[nH]c5ccccc45)n3)C2)cc1 [THZ531]; experiment: as above
LEE011/Ribociclib = compound: CN(C)C(=O)c1cc2cnc(Nc3ccc(N4CCNCC4)cn3)nc2n1C1CCCC1 [LEE011/Ribociclib]; experiment: as above
Flavopiridol [4] = compound: T2, CN1CC[C@H](c2c(O)cc(O)c3c(=O)cc(-c4ccccc4Cl)oc23)[C@H](O)C1 [Flavopiridol]; experiment: as above
BVD523 = compound: CC(C)Nc1cc(-c2c[nH]c(C(=O)N[C@H](CO)c3cccc(Cl)c3)c2)c(Cl)cn1 [BVD523]
R0-3306 = compound: C1=CC2=C(C=CC(=C2)C=C3C(=O)NC(=NCC4=CC=CS4)S3)N=C1 [R0-3306]
Paclitaxel = compound: CC(=O)O[C@H]1C(=O)[C@@]2(C)[C@H]([C@H](OC(=O)c3ccccc3)[C@]3(O)C[C@H](OC(=O)[C@H](O)[C@@H](NC(=O)c4ccccc4)c4ccccc4)C(C)=C1C3(C)C)[C@]1(OC(C)=O)CO[C@@H]1C[C@@H]2O [Paclitaxel]
[5] = compound: CCC1=CN=CN=C1N2CCN(CC2)CC3=NC4=C(N3)C=C(C=C4)C(F)(F)F
BSJ-03-123 [6] = compound: T1, BSJ-03-123
AZD5363 = compound: NC1(C(=O)N[C@@H](CCO)c2ccc(Cl)cc2)CCN(c2nc[nH]c3nccc2-3)CC1 [AZD5363]
[7] = compound: CO[C@@H](C)Cn1c(=O)n(C)c2cnc3ccc(-c4cncc(C(C)(C)O)c4)cc3c21
Neratinib/HKI272 = compound: CCOc1cc2ncc(C#N)c(Nc3ccc(OCc4ccccn4)c(Cl)c3)c2cc1NC(=O)/C=C/CN(C)C [Neratinib/HKI272]
Flavopiridol [8] = compound: T2, Flavopiridol
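Wherever GR50, 72 h is given: breast cancer and non-malignant breast epithelial cell lines, Deep Dye Drop or Dye Drop imaging, nine half-log doses, GR normalized to time-zero plates and DMSO-only controls.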

Cell Line: HCC38
- GR value (THZ1; 0.0001 µM): 1.1 GR
- GR value (THZ1; 0.0003162 µM): 1.05 GR
- GR value (THZ1; 0.001 µM): 1.05 GR
- GR value (THZ1; 0.003162 µM): 0.951 GR
- GR value (THZ1; 0.01 µM): 0.724 GR
- GR value (THZ1; 0.03162 µM): 0.452 GR
- GR value (THZ1; 0.1 µM): -0.224 GR
- GR value (THZ1; 0.3162 µM): -0.367 GR
- GR value (THZ1; 1 µM): -0.572 GR
- GR value ([1]; 0.0001 µM): 0.989 GR
- GR value ([1]; 0.0003162 µM): 1.05 GR
- GR value ([1]; 0.001 µM): 1.05 GR
- GR value ([1]; 0.003162 µM): 1.14 GR
- GR value ([1]; 0.01 µM): 0.761 GR
- GR value ([1]; 0.03162 µM): -0.374 GR
- GR value ([1]; 0.1 µM): -0.453 GR
- GR value ([1]; 0.3162 µM): -0.435 GR
- GR value ([1]; 1 µM): -0.453 GR
- GR value ([2]; 0.001 µM): 0.924 GR
- GR value ([2]; 0.003162 µM): 0.846 GR
- GR value ([2]; 0.01 µM): 0.738 GR
- GR value ([2]; 0.03162 µM): 0.452 GR
- GR value ([2]; 0.1 µM): 0.275 GR
- GR value ([2]; 0.3162 µM): 0.206 GR
- GR value ([2]; 1 µM): 0.122 GR
- GR value ([2]; 3.162 µM): -0.0767 GR
- GR value ([2]; 10 µM): -0.335 GR
- GR value (BSJ-03-123 [3]; 0.001 µM): 0.699 GR
- GR value (BSJ-03-123 [3]; 0.003162 µM): 0.719 GR
- GR value (BSJ-03-123 [3]; 0.01 µM): 0.468 GR
- GR value (BSJ-03-123 [3]; 0.03162 µM): 0.463 GR
- GR value (BSJ-03-123 [3]; 0.1 µM): 0.454 GR
- GR value (BSJ-03-123 [3]; 0.3162 µM): 0.419 GR
- GR value (BSJ-03-123 [3]; 1 µM): 0.341 GR
- GR value (BSJ-03-123 [3]; 3.162 µM): 0.306 GR
- GR value (BSJ-03-123 [3]; 10 µM): -0.0958 GR
- GR value (YKL-5-124; 0.001 µM): 0.436 GR
- GR value (YKL-5-124; 0.003162 µM): 0.282 GR
- GR value (YKL-5-124; 0.01 µM): 0.219 GR
- GR value (YKL-5-124; 0.03162 µM): 0.111 GR
- GR value (YKL-5-124; 0.1 µM): 0.0509 GR
- GR value (YKL-5-124; 0.3162 µM): -0.0003 GR
- GR value (YKL-5-124; 1 µM): -0.0242 GR
- GR value (YKL-5-124; 3.162 µM): -0.079 GR
- GR value (YKL-5-124; 10 µM): -0.393 GR
- GR value (THZ531; 0.0001 µM): 0.922 GR
- GR value (THZ531; 0.0003162 µM): 1.03 GR
- GR value (THZ531; 0.001 µM): 1.04 GR
- GR value (THZ531; 0.003162 µM): 0.998 GR
- GR value (THZ531; 0.01 µM): 1.07 GR
- GR value (THZ531; 0.03162 µM): 1.02 GR
- GR value (THZ531; 0.1 µM): 0.765 GR
- GR value (THZ531; 0.3162 µM): 0.0587 GR
- GR value (THZ531; 1 µM): -0.335 GR
- GR value (LEE011/Ribociclib; 0.001 µM): 0.807 GR
- GR value (LEE011/Ribociclib; 0.003162 µM): 0.769 GR
- GR value (LEE011/Ribociclib; 0.01 µM): 0.692 GR
- GR value (LEE011/Ribociclib; 0.03162 µM): 0.727 GR
- GR value (LEE011/Ribociclib; 0.1 µM): 0.577 GR
- GR value (LEE011/Ribociclib; 0.3162 µM): 0.511 GR
- GR value (LEE011/Ribociclib; 1 µM): 0.532 GR
- GR value (LEE011/Ribociclib; 3.162 µM): 0.4 GR
- GR value (LEE011/Ribociclib; 10 µM): 0.239 GR
- GR value (Flavopiridol [4]; 0.0001 µM): 0.986 GR
- GR value (Flavopiridol [4]; 0.0003162 µM): 0.927 GR
- GR value (Flavopiridol [4]; 0.001 µM): 0.962 GR
- GR value (Flavopiridol [4]; 0.003162 µM): 0.855 GR
- GR value (Flavopiridol [4]; 0.01 µM): 0.897 GR
- GR value (Flavopiridol [4]; 0.03162 µM): 0.814 GR
- GR value (Flavopiridol [4]; 0.1 µM): 0.591 GR
- GR value (Flavopiridol [4]; 0.3162 µM): 0.182 GR
- GR value (Flavopiridol [4]; 1 µM): -0.439 GR
- GR50, 72 h (BVD523): 4.75 µM
- GR50, 72 h (R0-3306): 7.29 µM
- GR50, 72 h (Paclitaxel): 0.00147 µM
- GR50, 72 h [5]: > 10 µM
- GR50, 72 h (BSJ-03-123 [6]): 0.0453 µM
- GR50, 72 h (AZD5363): > 10 µM
- GR50, 72 h [7]: 0.00435 µM
- GR50, 72 h (Neratinib/HKI272): 3.15 µM
- GR50, 72 h (Flavopiridol [8]): 0.139 µM

Source: the supplement of paper PMC9663587
